Measurements as given in BindingDB's records for doi:10.7270/Q2QJ7FTF (Burnham Center For Chemical Genomics, 2011).

Molecular target: T1, C-C chemokine receptor type 6 (Homo sapiens, UniProt P51684)
T1 sequence (P51684 whole entry): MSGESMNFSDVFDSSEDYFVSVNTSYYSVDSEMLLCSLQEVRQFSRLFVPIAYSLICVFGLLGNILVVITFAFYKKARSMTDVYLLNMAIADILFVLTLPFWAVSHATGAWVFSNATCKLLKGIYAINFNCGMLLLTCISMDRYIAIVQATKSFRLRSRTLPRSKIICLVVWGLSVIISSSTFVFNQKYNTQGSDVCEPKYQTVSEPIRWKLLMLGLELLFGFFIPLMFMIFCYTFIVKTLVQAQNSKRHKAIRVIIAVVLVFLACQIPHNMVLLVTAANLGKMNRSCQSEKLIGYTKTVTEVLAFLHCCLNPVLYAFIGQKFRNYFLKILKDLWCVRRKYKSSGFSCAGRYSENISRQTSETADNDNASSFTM
Experiment: CCR6 receptor antagonists, SAR follow-up, cell-based, luminescent beta-arrestin readout (AID 540334)

| Compound | IC50 [µM] |
| --- | --- |
| OCC12C=CC(O1)c1c2c(O)n(-c2ccccc2-c2ccccc2)c1O (configuration not stated) [7-(hydroxymethyl)-2-(2-phenylphenyl)-4,7a-dihydro-3aH-octahydro-1H-4,7-epoxyisoindole-1,3-dione] | > 66.6 |
| CN1C(=O)C(C2CC(c3ccc(Cl)cc3)N=N2)C(=O)N(C)C1=O (configuration not stated) [SMR000439471] | 5.84 |
